Laboratory results reported in PubChem BioAssay AID248 (DTP/NCI, 2004).
Where “and” joins values, the source holds several entries; their conditions need not be identical. Identical values can stand only once. Inconclusive results and toxic doses are left out. No stated cut-off is given here; in the data, active means T/C of 150% or more; inactive means T/C below 125%.

Tested on: L1210 leukemia ip in BDF1 mice, survival T/C
Assay: NCI In Vivo Anticancer Drug Screen. Data for tumor model L1210 Leukemia (intraperitoneal) in B6D2F1 (BDF1) mice
Settings: endpoint: mean survival time, higher = longer survival
Outline: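 Tumor was transplanted into mice, which were then dosed with test compound or vehicle alone. Survival was recorded for each group, and the treated figure was expressed relative to the control figure.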

[1] = dose: 100.0 mg/kg/injection, schedule: Q01DX001 (ip), vehicle: saline
[2] = dose: 200.0 mg/kg/injection, schedule: Q01DX001 (ip), vehicle: saline
[3] = dose: 400.0 mg/kg/injection, schedule: Q01DX001 (ip), vehicle: saline
[4] = dose: 50.0 mg/kg/injection, schedule: Q01DX001 (ip), vehicle: carboxymethylcellulose (CMC)
[5] = dose: 100.0 mg/kg/injection, schedule: Q01DX001 (ip), vehicle: carboxymethylcellulose (CMC)
[6] = dose: 100.0 mg/kg/injection, schedule: Q01DX009 (ip), vehicle: Klucel (hydroxypropylcellulose) (HPC)
[7] = dose: 100.0 mg/kg/injection, schedule: Q04DX002 (ip), vehicle: Klucel (hydroxypropylcellulose) (HPC)
[8] = dose: 200.0 mg/kg/injection, schedule: Q01DX001 (ip), vehicle: carboxymethylcellulose (CMC)
[9] = dose: 200.0 mg/kg/injection, schedule: Q01DX009 (ip), vehicle: Klucel (hydroxypropylcellulose) (HPC)
[10] = dose: 200.0 mg/kg/injection, schedule: Q04DX002 (ip), vehicle: Klucel (hydroxypropylcellulose) (HPC)
[11] = dose: 400.0 mg/kg/injection, schedule: Q01DX001 (ip), vehicle: carboxymethylcellulose (CMC)
[12] = dose: 400.0 mg/kg/injection, schedule: Q01DX009 (ip), vehicle: Klucel (hydroxypropylcellulose) (HPC)
[13] = dose: 100.0 mg/kg/injection, schedule: Q04DX003 (ip), vehicle: saline with Tween-80
[14] = dose: 200.0 mg/kg/injection, schedule: Q04DX003 (ip), vehicle: saline with Tween-80
[15] = dose: 400.0 mg/kg/injection, schedule: Q04DX003 (ip), vehicle: saline with Tween-80
[16] = dose: 100.0 mg/kg/injection, schedule: Q04DX003 (ip), vehicle: saline
[17] = dose: 100.0 mg/kg/injection, schedule: Q04DX003 (ip), vehicle: Klucel (hydroxypropylcellulose) (HPC)
[18] = dose: 200.0 mg/kg/injection, schedule: Q04DX003 (ip), vehicle: Klucel (hydroxypropylcellulose) (HPC)
[19] = dose: 400.0 mg/kg/injection, schedule: Q04DX003 (ip), vehicle: Klucel (hydroxypropylcellulose) (HPC)
[20] = dose: 100.0 mg/kg/injection, schedule: Q01DX001 (ip), vehicle: Klucel (hydroxypropylcellulose) (HPC)
[21] = dose: 200.0 mg/kg/injection, schedule: Q01DX001 (ip), vehicle: Klucel (hydroxypropylcellulose) (HPC)
[22] = dose: 400.0 mg/kg/injection, schedule: Q01DX001 (ip), vehicle: Klucel (hydroxypropylcellulose) (HPC)
[23] = dose: 100.0 mg/kg/injection, schedule: Q01DX009 (ip), vehicle: saline with Tween-80
[24] = dose: 200.0 mg/kg/injection, schedule: Q01DX009 (ip), vehicle: saline with Tween-80
[25] = dose: 400.0 mg/kg/injection, schedule: Q01DX009 (ip), vehicle: saline with Tween-80

Measured: T/C

CC(=O)c1ccc2c3ccccc3n(CCCN3CCC(O)CC3)c2c1
inactive: dose: 100.0 mg/kg/injection, schedule: Q04DX002 (ip), vehicle: saline 95 % of control | dose: 200.0 mg/kg/injection, schedule: Q04DX002 (ip), vehicle: saline 113 % of control

O=C(O)c1ccc([N+](=O)[O-])cc1S(=O)(=O)O
inactive: [1] 102 % of control | [2] 102 % of control | [3] 100 % of control

CN(C(=O)c1ccc([N+](=O)[O-])cc1)c1ccccc1
inactive: [4] 100 % of control | [5] 118 % of control | [6] 103 % of control | [7] 93 % of control | [8] 108 % of control | [9] 96 % of control | [10] 90 % of control | [11] 96 % of control | [12] 100 % of control | dose: 400.0 mg/kg/injection, schedule: Q04DX002 (ip), vehicle: Klucel (hydroxypropylcellulose) (HPC) 123 % of control

C/C=C/C(=O)Nc1cccc(OC(=O)NC(C)CC)c1 (centres undefined)
inactive: [13] 98 % of control | [14] 87 % of control | [15] 93 % of control

COc1cc(N(CCCl)CCCl)c(OC)cc1/C=N\Nc1nncn1N
inactive: dose: 1.2 mg/kg/injection, schedule: Q01DX015 (ip), vehicle: carboxymethylcellulose (CMC) 109 % of control | dose: 1.4 mg/kg/injection, schedule: Q01DX015 (ip), vehicle: carboxymethylcellulose (CMC) 105 % of control | dose: 2.2 mg/kg/injection, schedule: Q01DX015 (ip), vehicle: carboxymethylcellulose (CMC) 107 % of control | dose: 2.5 mg/kg/injection, schedule: Q01DX015 (ip), vehicle: carboxymethylcellulose (CMC) 109 % of control | dose: 3.3 mg/kg/injection, schedule: Q01DX015 (ip), vehicle: carboxymethylcellulose (CMC) 110 % of control | dose: 15.0 mg/kg/injection, schedule: Q01DX015 (ip), vehicle: carboxymethylcellulose (CMC) 96 % of control and 103 % of control | dose: 33.0 mg/kg/injection, schedule: Q01DX001 (ip), vehicle: carboxymethylcellulose (CMC) 124 % of control | [5] 105 % of control

O=S(=O)(O)c1ccc(N=Nc2c(O)cc(O)cc2O)cc1
inactive: [16] 94 % of control | dose: 200.0 mg/kg/injection, schedule: Q04DX003 (ip), vehicle: saline 97 % of control | dose: 400.0 mg/kg/injection, schedule: Q04DX003 (ip), vehicle: saline 93 % of control

CC1(C)NC(C(=O)O)C(C)(C)S1 (centres undefined)
inactive: [1] 100 % of control | [2] 89 % of control | [3] 95 % of control

O=c1ccc2nc3cc(Cl)ccc3sc-2c1
inactive: [6] 95 % of control | [9] 96 % of control | [12] 87 % of control

CCN(c1ccccc1C)S(=O)(=O)c1ccccc1
inactive: [6] 109 % of control | [17] 103 % of control | [9] 101 % of control | [18] 93 % of control | [12] 87 % of control | [19] 95 % of control

COc1ccc(/C=N/NC(=O)COCC(=O)N/N=C/c2ccc(OC)c(OC)c2)cc1OC
inactive: [6] 101 % of control | [9] 95 % of control | [12] 92 % of control

COc1ccccc1-n1c(O)c(N=Nc2ccc(Cl)cc2)c(=O)n(-c2ccc(C)cc2)c1=S
inactive: [20] 98 % of control | [21] 96 % of control | [22] 105 % of control

CCCCCCCCP(C)(=O)CCCCCCCC
inactive: [7] 105 % of control | [10] 102 % of control

COc1ccc(CCNC(=O)Cc2ccc(OC)c(OC)c2)cc1OC
inactive: dose: 12.5 mg/kg/injection, schedule: Q04DX003 (ip), vehicle: saline with Tween-80 94 % of control | dose: 25.0 mg/kg/injection, schedule: Q04DX003 (ip), vehicle: saline with Tween-80 110 % of control | dose: 50.0 mg/kg/injection, schedule: Q04DX003 (ip), vehicle: saline with Tween-80 100 % of control | [1] 98 % of control | [6] 94 % of control | dose: 100.0 mg/kg/injection, schedule: Q01DX009 (ip), vehicle: saline sonified 100 % of control | [23] 86 % of control | [17] 105 % of control | [13] 107 % of control | [2] 92 % of control | [9] 96 % of control | dose: 200.0 mg/kg/injection, schedule: Q01DX009 (ip), vehicle: saline sonified 100 % of control | [24] 95 % of control | [18] 112 % of control | [14] 94 % of control | [3] 93 % of control | [12] 98 % of control | dose: 400.0 mg/kg/injection, schedule: Q01DX009 (ip), vehicle: saline sonified 90 % of control | [25] 91 % of control | [19] 104 % of control | [15] 92 % of control

OCCN1CCC(CCCC2CCNCC2)CC1
inactive: dose: 10.0 mg/kg/injection, schedule: Q01DX Z (ip), vehicle: saline 97 % of control | dose: 25.0 mg/kg/injection, schedule: Q01DX009 (ip), vehicle: saline 102 % of control | dose: 25.0 mg/kg/injection, schedule: Q04DX003 (ip), vehicle: saline 111 % of control | dose: 30.0 mg/kg/injection, schedule: Q01DX Z (ip), vehicle: saline 102 % of control | dose: 50.0 mg/kg/injection, schedule: Q01DX009 (ip), vehicle: saline 96 % of control | dose: 50.0 mg/kg/injection, schedule: Q04DX003 (ip), vehicle: saline 98 % of control | dose: 100.0 mg/kg/injection, schedule: Q01DX009 (ip), vehicle: saline 91 % of control | [16] 108 % of control

CCOC(=O)/C=C\COC(=O)CC#N
inactive: [23] 102 % of control | [24] 107 % of control | [25] 98 % of control

CCOC(=O)c1oc2cc(O)cc(C)c2c1C
inactive: [4] 97 % of control | [5] 100 % of control | [8] 94 % of control | [11] 94 % of control

Fc1c(F)c(Oc2c(F)c(F)c(C(F)(F)F)c(F)c2F)c(F)c(Oc2c(F)c(F)c(C(F)(F)F)c(F)c2F)c1F
inactive: [20] 96 % of control | [17] 98 % of control | [21] 100 % of control | [18] 95 % of control | [22] 89 % of control | [19] 97 % of control

Cc1cc(N(CCOS(C)(=O)=O)CCOS(C)(=O)=O)ccc1C=Nc1cc(Cl)c(O)c(Cl)c1
inactive: dose: 20.0 mg/kg/injection, schedule: Q04DX003 (ip), vehicle: Klucel (hydroxypropylcellulose) (HPC) 121 % of control | dose: 40.0 mg/kg/injection, schedule: Q04DX003 (ip), vehicle: Klucel (hydroxypropylcellulose) (HPC) 118 % of control | dose: 80.0 mg/kg/injection, schedule: Q04DX003 (ip), vehicle: Klucel (hydroxypropylcellulose) (HPC) 100 % of control
